Assay results reported in EP2674155B1, “Association of resveratrol and carboxymethylglucan” (priority 2012, dated 2013).

What was measured:
[1] = Stability over time of resveratrol in aqueous solution (25°C, closed, protected from light), HPLC; assay type: physicochemical; conditions: resveratrol alone 0.03 mg/ml
Description: (§1) The chromatographic method devised for determining resveratrol provides the use of a HPLC Waters system constituted by a pump, 600 model, by a Waters self-sampler mod. 717 and by a UV-Visible Photodiode array detector mod 2996. The system is handled by the Millenium^32 software. The used chromatographic column is a Symmetry C-18 with length of 15 cm, associated to a specific pre-column of same material with length of 1 cm. The elution is performed under isocratic conditions by using the following mixtures: • 1) 30% [Acetic acid 0.1 % in methanol] e 70% [Acetic acid 0.1 % in water] • 2) 80% [Acetic acid 10% in water] and 20% [Acetonitrile]. For the measurements 50 µL of sample are taken, diluted in 500µL of mobile phase and an aliquot of 50µL is injected in HPLC.
The examined concentration of the solution of resveratrol was 0.03 mg/ml, corresponding to the maximum quantity which can be solubilized in water of the original product. […] The two solutions were kept under the same conditions described above for the solution of resveratrol only and they were evaluated in different moments as from the time of the preparation thereof. […]

VERO cellular line = experiment: Cellular metabolic activity, MTT assay; assay type: cell-based; conditions: VERO cells, resveratrol 0.5 mg/ml (2.2 mM), 6 hours after exposition, versus not treated cells (CTRL)
Description: The cellular metabolic activity is evaluated on VERO cellular line, by means of MTT cellular proliferation assay (3-(4,5-dimethylthiazole-2-il)-2,5-diphenyltetrazolium bromide). The test with MTT is a simple method for determining the metabolic activation of the cells and it is based upon the action of the mitochondrial enzyme succinate dehydrogenase reducing the tetrazolium salts in crystals of a bluish product called formazan. Therefore the reaction can take place only in the metabolically active cells and the value of optical density (O.D.), obtained by means of spectrophotometric reading, can be correlated to the quantity of existing vital cells.
Upon considering the application of the association CMG-resveratrol for the formulation of pharmaceutical products, dietary supplies, medical devices, cosmetic products, functional pieces of food, veterinary products, with consequent interaction with the biological systems of men and animals in general, even the possible cytotoxycity was evaluated. In particular tests of cellular metabolic activity in presence of resveratrol and CMG on VERO cellular line were performed. […]
6 hours after exposition to these substances MTT colouring agent was added, then the formazan produced by the metabolically active cells was extracted with isopropanol and the optical density measured at 570 nm by subtracting the reference value at 690 nm. […]

[2] = Solubility of resveratrol in buffered aqueous solution in presence of CMG, determined by HPLC; assay type: physicochemical
Description: as §1
The solutions of CMG and resveratrol have always been prepared in a buffered, isotonic, physiological pH-containing aqueous solution, constituted by: • dipotassium phosphate 0.74% • sodium chloride 0.42% • potassium phosphate 0.175%
All solutions were cold-prepared and without using any organic solvent.
In order to evaluate the solubility, with consequent effect on the bioavailability thereof, formulations were prepared containing resveratrol in association with CMG at increasing concentrations (from 0.5 mg/ml to 10 mg/ml) in a ratio 1:1, in an aqueous solution of the above-mentioned composition. […]

[3] = assay type: physicochemical
Description: The solubility of triacetyl-resveratrol and of trimethylether of resveratrol in an aqueous solution (of the same composition described in example 1) in presence of CMG was evaluated. In particular, the solubility in aqueous phase of triacetyl-resveratrol and of trimethyl ether of resveratrol was evaluated at first and this value was considered unitary.

| Structure (SMILES) | stability of resveratrol in buffer solution ([1]; after 2 months) | stability of resveratrol in buffer solution ([1]; after 7 months) | reduction in the cellular metabolic activity (VERO cellular line) | concentration of CMG from which highly solubilizing action on resveratrol is confirmed [2] | solubilization higher than what reported in literature [2] | increase of solubility in presence of CMG, relative to solubility of the pure compound considered unitary [3] |
| --- | --- | --- | --- | --- | --- | --- |
| Oc1ccc(C=Cc2cc(O)cc(O)c2)cc1 [resveratrol, 3,4',5-trihydroxystilbene] | strong degradation | no more detected | 20% | ≥ 250 µg/mL | at least 100 times | – |
| CC(=O)Oc1ccc(/C=C/c2cc(OC(C)=O)cc(OC(C)=O)c2)cc1 [triacetylresveratrol, triacetyl-resveratrol] | – | – | – | – | – | more than one and a half time |
| COc1ccc(/C=C/c2cc(OC)cc(OC)c2)cc1 [trimethylether of resveratrol] | – | – | – | – | – | three times |
